PubChem BioAssay AID192 (DTP/NCI, 2004)
Values joined by “and” are separate entries in the source; they are usually repeats but may differ in a detail not shown here. Identical values can stand only once. Toxic doses and inconclusive results are not listed.

Test system: BDF1 mice, B16 melanoma ip, median survival T/C
Assay: NCI In Vivo Anticancer Drug Screen. Data for tumor model B16 Melanoma (intraperitoneal) in B6D2F1 (BDF1) mice
Conditions: endpoint: median survival time, higher = longer survival
In short: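 Antitumor activity is assessed in mice bearing a transplanted tumor, with survival or tumor size compared against vehicle-dosed controls and expressed as T/C.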

[1] = dose: 100.0 mg/kg/injection, schedule: Q04DX003 (ip), vehicle: saline
[2] = dose: 200.0 mg/kg/injection, schedule: Q04DX003 (ip), vehicle: saline
[3] = dose: 400.0 mg/kg/injection, schedule: Q04DX003 (ip), vehicle: saline
[4] = dose: 25.0 mg/kg/injection, schedule: Q01DX009 (ip), vehicle: saline
[5] = dose: 50.0 mg/kg/injection, schedule: Q01DX009 (ip), vehicle: saline
[6] = dose: 6.25 mg/kg/injection, schedule: Q01DX009 (ip), vehicle: saline with Tween-80
[7] = dose: 12.5 mg/kg/injection, schedule: Q01DX009 (ip), vehicle: saline with Tween-80
[8] = dose: 50.0 mg/kg/injection, schedule: Q01DX009 (ip), vehicle: saline with Tween-80
[9] = dose: 1.5 mg/kg/injection, schedule: Q01DX009 (ip), vehicle: saline
[10] = dose: 100.0 mg/kg/injection, schedule: Q01DX009 (ip), vehicle: Klucel (hydroxypropylcellulose) (HPC)
[11] = dose: 100.0 mg/kg/injection, schedule: Q04DX003 (ip), vehicle: Klucel (hydroxypropylcellulose) (HPC)
[12] = dose: 200.0 mg/kg/injection, schedule: Q01DX009 (ip), vehicle: Klucel (hydroxypropylcellulose) (HPC)
[13] = dose: 200.0 mg/kg/injection, schedule: Q04DX003 (ip), vehicle: Klucel (hydroxypropylcellulose) (HPC)
[14] = dose: 400.0 mg/kg/injection, schedule: Q01DX009 (ip), vehicle: Klucel (hydroxypropylcellulose) (HPC)
[15] = dose: 400.0 mg/kg/injection, schedule: Q04DX003 (ip), vehicle: Klucel (hydroxypropylcellulose) (HPC)
[16] = dose: 100.0 mg/kg/injection, schedule: Q01DX009 (ip), vehicle: saline with Tween-80
[17] = dose: 200.0 mg/kg/injection, schedule: Q01DX009 (ip), vehicle: saline with Tween-80
[18] = dose: 400.0 mg/kg/injection, schedule: Q01DX009 (ip), vehicle: saline with Tween-80
[19] = dose: 6.25 mg/kg/injection, schedule: Q01DX009 (ip), vehicle: Klucel (hydroxypropylcellulose) (HPC)
[20] = dose: 25.0 mg/kg/injection, schedule: Q01DX009 (ip), vehicle: Klucel (hydroxypropylcellulose) (HPC)
[21] = dose: 50.0 mg/kg/injection, schedule: Q01DX009 (ip), vehicle: Klucel (hydroxypropylcellulose) (HPC)
[22] = dose: 3.12 mg/kg/injection, schedule: Q01DX009 (ip), vehicle: saline
[23] = dose: 12.5 mg/kg/injection, schedule: Q01DX009 (ip), vehicle: saline
[24] = dose: 12.5 mg/kg/injection, schedule: Q01DX009 (ip), vehicle: Klucel (hydroxypropylcellulose) (HPC)

## CN1C2C=C(c3ccccc3)C(Br)C1CC2 (stereo not drawn)
dose: 20.0 mg/kg/injection, schedule: Q01DX009 (ip), vehicle: saline with Tween-80
  T/C: 98 % of control
dose: 20.0 mg/kg/injection, schedule: Q04DX003 (ip), vehicle: saline with Tween-80
  T/C: 100 % of control
dose: 40.0 mg/kg/injection, schedule: Q01DX009 (ip), vehicle: saline with Tween-80
  T/C: 91 % of control
dose: 40.0 mg/kg/injection, schedule: Q04DX003 (ip), vehicle: saline with Tween-80
  T/C: 104 % of control
dose: 80.0 mg/kg/injection, schedule: Q04DX003 (ip), vehicle: saline with Tween-80
  T/C: 88 % of control

## C1CCC(=NN=C2CCCCC2)CC1
dose: 50.0 mg/kg/injection, schedule: Q04DX003 (sc), vehicle: olive oil, sesame oil, peanut oil
  T/C: 111 % of control
dose: 100.0 mg/kg/injection, schedule: Q04DX003 (sc), vehicle: olive oil, sesame oil, peanut oil
  T/C: 95 % of control
dose: 200.0 mg/kg/injection, schedule: Q04DX003 (sc), vehicle: olive oil, sesame oil, peanut oil
  T/C: 102 % of control

## O=S(=O)(O)CNc1ccccc1
[1]
  T/C: 104 % of control
[2]
  T/C: 97 % of control
[3]
  T/C: 106 % of control

## NC(=O)Nc1n[nH]c(-c2ccccc2)n1
[4]
  T/C: 99 % of control
[5]
  T/C: 99 % of control
dose: 100.0 mg/kg/injection, schedule: Q01DX009 (ip), vehicle: saline
  T/C: 86 % of control

## CNC(=O)n1c(N)nc(-c2ccccc2)c1-c1ccccc1
[6]
  T/C: 98 % of control
[7]
  T/C: 98 % of control
dose: 25.0 mg/kg/injection, schedule: Q01DX009 (ip), vehicle: saline with Tween-80
  T/C: 106 % of control
[8]
  T/C: 107 % of control

## COc1c2c([n+](C)c3c(OC)cccc13)OC(C(C)C)C2 (stereo not drawn)
dose: 0.25 mg/kg/injection, schedule: Q01DX009 (ip), vehicle: saline sonified
  T/C: 102 % of control
dose: 0.5 mg/kg/injection, schedule: Q01DX009 (ip), vehicle: saline sonified
  T/C: 100 % of control
dose: 0.75 mg/kg/injection, schedule: Q01DX009 (ip), vehicle: saline
  T/C: 94 % of control
dose: 1.0 mg/kg/injection, schedule: Q01DX009 (ip), vehicle: saline sonified
  T/C: 102 % of control
[9]
  T/C: 88 % of control
dose: 1.5 mg/kg/injection, schedule: Q04DX003 (ip), vehicle: saline
  T/C: 107 % of control
dose: 3.0 mg/kg/injection, schedule: Q04DX003 (ip), vehicle: saline
  T/C: 89 % of control

## Cc1ccc(NC(=O)Nc2cccc(Cl)c2)cc1C
[10]
  T/C: 86 % of control
[11]
  T/C: 92 % of control
[12]
  T/C: 86 % of control
[13]
  T/C: 92 % of control
[14]
  T/C: 86 % of control
[15]
  T/C: 92 % of control

## Cc1[nH]c(N)nc(=S)c1CCC(=O)Nc1ccc(C(=O)NC(CCC(=O)O)C(=O)O)cc1 (stereo not drawn)
[8]
  T/C: 101 % of control
[16]
  T/C: 101 % of control
[17]
  T/C: 100 % of control
[18]
  T/C: 110 % of control

## CC(=N\O)/C(C)=N/O.CC(=N\O)/C(C)=N/O.[Pd]
dose: 0.75 mg/kg/injection, schedule: Q01DX009 (ip), vehicle: Klucel (hydroxypropylcellulose) (HPC)
  T/C: 96 % of control
dose: 1.57 mg/kg/injection, schedule: Q01DX009 (ip), vehicle: Klucel (hydroxypropylcellulose) (HPC)
  T/C: 95 % of control
dose: 3.13 mg/kg/injection, schedule: Q01DX009 (ip), vehicle: Klucel (hydroxypropylcellulose) (HPC)
  T/C: 96 % of control
[19]
  T/C: 94 % of control

## O=S(=O)(NN=C(c1ccccc1)c1ccccc1)c1ccccc1
[20]
  T/C: 86 % of control
[21]
  T/C: 91 % of control

## CC1CCCCC1NC(=O)NCCOC(=O)OCCNC(=O)NC1CCCCC1C (stereo not drawn)
[16]
  T/C: 97 % of control
[17]
  T/C: 95 % of control
[18]
  T/C: 97 % of control

## O=C(Oc1ccc(Cl)cc1)c1ccc(Cl)cc1
dose: 75.0 mg/kg/injection, schedule: Q04DX003 (ip), vehicle: Klucel (hydroxypropylcellulose) (HPC)
  T/C: 100 % of control

## CCCCCCCCCCCCCCCCP(=O)(OCCOCCCCCC)OCCOCCCCCC
[22]
  T/C: 103 % of control
dose: 6.25 mg/kg/injection, schedule: Q01DX009 (ip), vehicle: saline
  T/C: 116 % of control
[23]
  T/C: 109 % of control
[4]
  T/C: 102 % of control
[5]
  T/C: 94 % of control

## S=P(N1CC1)(N1CC1)N1CC1
dose: 0.5 mg/kg/injection, schedule: Q01DX009 (ip), vehicle: saline
  T/C: 104 % of control
dose: 1.0 mg/kg/injection, schedule: Q02DX009 (ip), vehicle: saline
  T/C: 106 % of control and 120 % of control
[9]
  T/C: 110 % of control and 120 % of control
dose: 1.5 mg/kg/injection, schedule: Q02DX009 (ip), vehicle: saline
  T/C: 112 % of control
dose: 2.0 mg/kg/injection, schedule: Q02DX009 (ip), vehicle: saline
  T/C: 94 % of control and 111 % of control
dose: 3.0 mg/kg/injection, schedule: Q01DX009 (ip), vehicle: saline
  T/C: 104 % of control and 111 % of control
dose: 3.0 mg/kg/injection, schedule: Q02DX009 (ip), vehicle: saline
  T/C: 120 % of control
dose: 4.0 mg/kg/injection, schedule: Q02DX009 (ip), vehicle: saline
  T/C: 119 % of control and 120 % of control
dose: 6.0 mg/kg/injection, schedule: Q01DX009 (ip), vehicle: saline
  T/C: 86 % of control
dose: 6.0 mg/kg/injection, schedule: Q02DX009 (ip), vehicle: saline
  T/C: 116 % of control and 117 % of control
dose: 8.0 mg/kg/injection, schedule: Q02DX009 (ip), vehicle: saline
  T/C: 88 % of control and 122 % of control
dose: 12.0 mg/kg/injection, schedule: Q02DX009 (ip), vehicle: saline
  T/C: 86 % of control

## COc1ccc2[nH]c3ccc4cc[n+](CCN5CCC(C6CCN(CC[n+]7ccc8ccc9[nH]c%10ccc(OC)cc%10c9c8c7)CC6)CC5)cc4c3c2c1
[24]
  T/C: 150 % of control
[20]
  T/C: 194 % of control
[21]
  T/C: 180 % of control
[10]
  T/C: 100 % of control

## ClC1CC[N-]CC1.ClC1CC[N-]CC1.[Cl][Pt+2]([Cl])([Cl])[Cl]
dose: 3.13 mg/kg/injection, schedule: Q01DX009 (ip), vehicle: saline with Tween-80
  T/C: 104 % of control
[6]
  T/C: 104 % of control
[7]
  T/C: 117 % of control

## Cc1ccc(C(=O)NCCCOc2ccc(N3C(N)=NC(N)=NC3(C)C)cc2Cl)cc1S(=O)(=O)F
[23]
  T/C: 96 % of control
[4]
  T/C: 91 % of control

## CC(C)NNC(=O)c1ccccc1N
[24]
  T/C: 100 % of control
[21]
  T/C: 87 % of control
[10]
  T/C: 95 % of control
[12]
  T/C: 97 % of control

## COc1ccc(NC(=O)Oc2c(C(C)C)cccc2C(C)C)cc1
[10]
  T/C: 96 % of control
[11]
  T/C: 110 % of control
[12]
  T/C: 96 % of control
[13]
  T/C: 103 % of control
[14]
  T/C: 89 % of control
[15]
  T/C: 103 % of control

## O=S(=O)(O)O.[Ga]
[23]
  T/C: 101 % of control
[4]
  T/C: 94 % of control
[5]
  T/C: 91 % of control

## O=C(OCCOCCN1CCCCC1)N1c2ccccc2Sc2cccnc21
[22]
  T/C: 100 % of control
[23]
  T/C: 100 % of control
[4]
  T/C: 102 % of control

## CC(=O)OCc1c(O)c2c(c(O)c1COC(C)=O)C(=O)C=CC2=O
[19]
  T/C: 94 % of control
[24]
  T/C: 91 % of control
[20]
  T/C: 89 % of control

## CCOC(=O)C1(C)OCCO1
[1]
  T/C: 95 % of control
[2]
  T/C: 104 % of control
[3]
  T/C: 104 % of control
